The record followed here is paper PMC5218480 (PLoS ONE, 2017).

The structures appear in SMILES notation.

The experiment relates to MV-4-11 cells. The experiment can be described thus: Gene expression microarray analysis (Affymetrix PrimeView) and GSEA. Format: cell-based, human. The arrangement: RFU PODN (11730768_x_at) / Fold change /veh PODN (11730768_x_at) / RFU LINC00158 (11744669_a_at) / Fold change /veh LINC00158 (11744669_a_at) / RFU DUSP10 (11751237_a_at) / Fold change /veh DUSP10 (11751237_a_at) / RFU ID3 (11757404_x_at) / Fold change /veh ID3 (11757404_x_at) / RFU PLEKHG5 (11737974_s_at) / Fold change /veh PLEKHG5 (11737974_s_at) / RFU LRRC4B (11730491_at) / Fold change /veh LRRC4B (11730491_at) / RFU GIMAP4 (11747438_a_at) / Fold change /veh GIMAP4 (11747438_a_at) / RFU KRT8 (11758183_x_at) / Fold change /veh KRT8 (11758183_x_at) / RFU CNN1 (11734310_a_at) / Fold change /veh CNN1 (11734310_a_at) / RFU VPS37D (11726825_at) / Fold change /veh VPS37D (11726825_at) / RFU C10orf10 (11716522_x_at) / Fold change /veh C10orf10 (11716522_x_at) / RFU KIR2DL2 /// KIR2DL4 /// KIR2DL5A /// KIR2DL5B /// KIR2DS1 /// KIR2DS2 /// KIR2DS3 /// KIR2DS4 /// KIR3DL3 /// KIR3DL3 /// KIR3DS1 (11738374_at) / Fold change /veh KIR2DL2 /// KIR2DL4 /// KIR2DL5A /// KIR2DL5B /// KIR2DS1 /// KIR2DS2 /// KIR2DS3 /// KIR2DS4 /// KIR3DL3 /// KIR3DL3 /// KIR3DS1 (11738374_at) / RFU C1QL1 (11718748_at) / Fold change /veh C1QL1 (11718748_at) / RFU TMPRSS4 (11747572_a_at) / Fold change /veh TMPRSS4 (11747572_a_at) / RFU HAMP (11756126_x_at) / Fold change /veh HAMP (11756126_x_at) / RFU RNFT2 (11725882_a_at) / Fold change /veh RNFT2 (11725882_a_at) / RFU NR4A2 (11747474_a_at) / Fold change /veh NR4A2 (11747474_a_at) / RFU ABCC12 (11746883_a_at) / Fold change /veh ABCC12 (11746883_a_at) / RFU TMEM136 (11760407_x_at) / Fold change /veh TMEM136 (11760407_x_at) / RFU CLDN22 /// WWC2 (11732394_at) / Fold change /veh CLDN22 /// WWC2 (11732394_at) / RFU HLA-DPB1 (11760878_x_at) / Fold change /veh HLA-DPB1 (11760878_x_at) / RFU SPINT1 (11716480_a_at) / Fold change /veh SPINT1 (11716480_a_at) / RFU GAP43 (11754022_s_at) / Fold change /veh GAP43 (11754022_s_at) / RFU A4GNT (11735810_at) / Fold change /veh A4GNT (11735810_at) / RFU PRB3 (11715151_x_at) / Fold change /veh PRB3 (11715151_x_at) / RFU TUBB4B (11761932_at) / Fold change /veh TUBB4B (11761932_at) / RFU CAPN14 (11732068_a_at) / Fold change /veh CAPN14 (11732068_a_at) / RFU TMCC2 (11721928_a_at) / Fold change /veh TMCC2 (11721928_a_at) / RFU IRGQ (11745062_a_at) / Fold change /veh IRGQ (11745062_a_at) / RFU FAM174B (11720279_a_at) / Fold change /veh FAM174B (11720279_a_at) / RFU TMPRSS4 (11748680_a_at) / Fold change /veh TMPRSS4 (11748680_a_at) / RFU FAM212B (11763350_a_at) / Fold change /veh FAM212B (11763350_a_at) / RFU PLEKHG5 (11743358_a_at) / Fold change /veh PLEKHG5 (11743358_a_at) / RFU ZSCAN30 (11745921_a_at) / Fold change /veh ZSCAN30 (11745921_a_at) / RFU CMKLR1 (11741424_a_at) / Fold change /veh CMKLR1 (11741424_a_at) / RFU LOC101060620 /// MAPK8IP1 (11723275_at) / Fold change /veh LOC101060620 /// MAPK8IP1 (11723275_at) / RFU SPTSSB (11747773_x_at) / Fold change /veh SPTSSB (11747773_x_at) / RFU PRSS12 (11739890_at) / Fold change /veh PRSS12 (11739890_at) / RFU BIN1 (11741810_x_at) / Fold change /veh BIN1 (11741810_x_at) / RFU WNT11 (11732464_a_at) / Fold change /veh WNT11 (11732464_a_at) / RFU C10orf10 (11716521_a_at) / Fold change /veh C10orf10 (11716521_a_at) / RFU C5orf56 (11738089_at) / Fold change /veh C5orf56 (11738089_at) / RFU CYB561 (11721691_x_at) / Fold change /veh CYB561 (11721691_x_at) / RFU ANKRD19P (11752326_a_at) / Fold change /veh ANKRD19P (11752326_a_at) / RFU OR2T12 /// OR2T33 /// OR2T8 (11738714_s_at) / Fold change /veh OR2T12 /// OR2T33 /// OR2T8 (11738714_s_at) / RFU VCAN (11748164_a_at) / Fold change /veh VCAN (11748164_a_at) / RFU JSRP1 (11732532_at) / Fold change /veh JSRP1 (11732532_at) / RFU KRTAP10-11 (11738290_x_at) / Fold change /veh KRTAP10-11 (11738290_x_at) / RFU MYO3A (11730013_a_at) / Fold change /veh MYO3A (11730013_a_at) / RFU EBF3 (11725865_a_at) / Fold change /veh EBF3 (11725865_a_at) / RFU CAMK2N1 (11719241_x_at) / Fold change /veh CAMK2N1 (11719241_x_at) / RFU C5orf56 (11738088_a_at) / Fold change /veh C5orf56 (11738088_a_at) / RFU OLFML3 (11715873_a_at) / Fold change /veh OLFML3 (11715873_a_at) / RFU LOC100653217 /// NTM (11731650_a_at) / Fold change /veh LOC100653217 /// NTM (11731650_a_at) / RFU MAPK11 (11762145_a_at) / Fold change /veh MAPK11 (11762145_a_at) / RFU FIZ1 (11724087_x_at) / Fold change /veh FIZ1 (11724087_x_at) / RFU OASL (11726364_x_at) / Fold change /veh OASL (11726364_x_at) / RFU SOX15 (11748057_x_at) / Fold change /veh SOX15 (11748057_x_at) / RFU CD79A (11719716_a_at) / Fold change /veh CD79A (11719716_a_at) / RFU HIST1H1D (11736915_at) / Fold change /veh HIST1H1D (11736915_at) / RFU CASKIN2 (11723855_a_at) / Fold change /veh CASKIN2 (11723855_a_at) / RFU LOC730098 (11760151_x_at) / Fold change /veh LOC730098 (11760151_x_at) / RFU OR4N2 (11742367_at) / Fold change /veh OR4N2 (11742367_at) / RFU PRRT2 (11749266_a_at) / Fold change /veh PRRT2 (11749266_a_at) / RFU SNX32 (11753110_a_at) / Fold change /veh SNX32 (11753110_a_at) / RFU CDHR5 (11726645_a_at) / Fold change /veh CDHR5 (11726645_a_at) / RFU RCAN1 (11760418_a_at) / Fold change /veh RCAN1 (11760418_a_at) / RFU FAM167A (11723789_a_at) / Fold change /veh FAM167A (11723789_a_at) / RFU FAM26E (11764081_at) / Fold change /veh FAM26E (11764081_at) / RFU ISYNA1 (11749810_s_at) / Fold change /veh ISYNA1 (11749810_s_at) / RFU ACY1 (11761880_at) / Fold change /veh ACY1 (11761880_at) / RFU 11764098_at / Fold change /veh 11764098_at / RFU SAMD14 (11745864_x_at) / Fold change /veh SAMD14 (11745864_x_at) / RFU NPB (11741838_a_at) / Fold change /veh NPB (11741838_a_at) / RFU TMPRSS6 (11731388_a_at) / Fold change /veh TMPRSS6 (11731388_a_at) / RFU KRTAP10-2 (11738614_at) / Fold change /veh KRTAP10-2 (11738614_at) / RFU ARHGAP8 /// PRR5-ARHGAP8 (11727945_x_at) / Fold change /veh ARHGAP8 /// PRR5-ARHGAP8 (11727945_x_at) / RFU KRTAP5-7 /// NADSYN1 (11734609_at) / Fold change /veh KRTAP5-7 /// NADSYN1 (11734609_at) / RFU RASL12 (11751679_a_at) / Fold change /veh RASL12 (11751679_a_at) / RFU CDKN2B (11736163_a_at) / Fold change /veh CDKN2B (11736163_a_at) / RFU PRF1 (11729649_at) / Fold change /veh PRF1 (11729649_at) / RFU, ZNF638 /// ZNF638-IT1 / Fold change vs veh, ZNF638 /// ZNF638-IT1 / RFU, PANK3 / Fold change vs veh, PANK3 / RFU, SH3YL1 / Fold change vs veh, SH3YL1 / RFU, ZEB2 / Fold change vs veh, ZEB2 / RFU, NRIP1 / Fold change vs veh, NRIP1 / RFU, PTTG1IP / Fold change vs veh, PTTG1IP / RFU, CAPN2 / Fold change vs veh, CAPN2 / RFU, MED14 / Fold change vs veh, MED14 / RFU, SNORA58 / Fold change vs veh, SNORA58 / RFU, C1orf63 / Fold change vs veh, C1orf63 / RFU, LRRFIP1 / Fold change vs veh, LRRFIP1 / RFU, NDUFAF7 / Fold change vs veh, NDUFAF7 / RFU, SLC12A2 / Fold change vs veh, SLC12A2 / RFU, IBTK / Fold change vs veh, IBTK / RFU, ESF1 / Fold change vs veh, ESF1 / Fold change vs veh, TMEM50B / RFU, TAOK1 / Fold change vs veh, TAOK1 / RFU, ACBD3 / Fold change vs veh, ACBD3 / RFU, TMA16 / Fold change vs veh, TMA16 / RFU, RWDD3 / Fold change vs veh, RWDD3 / RFU, BCAT1 / Fold change vs veh, BCAT1 / RFU, EDEM3 / Fold change vs veh, EDEM3 / RFU, TMEM33 / Fold change vs veh, TMEM33 / RFU, WDR75 / Fold change vs veh, WDR75 / RFU, AHCTF1 / Fold change vs veh, AHCTF1 / RFU, TFRC / Fold change vs veh, TFRC / RFU, ZDHHC17 / Fold change vs veh, ZDHHC17 / RFU, NOM1 / Fold change vs veh, NOM1 / RFU, ARL8B / Fold change vs veh, ARL8B / RFU, ZBTB11 / Fold change vs veh, ZBTB11 / RFU, TAMM41 / Fold change vs veh, TAMM41 / RFU, KIAA1704 /// LOC100996395 / Fold change vs veh, KIAA1704 /// LOC100996395 / RFU, ING1 / Fold change vs veh, ING1 / RFU, TRMT61B / Fold change vs veh, TRMT61B / RFU, FUBP3 / Fold change vs veh, FUBP3 / RFU, TP53 / Fold change vs veh, TP53 / RFU, TNKS2 / Fold change vs veh, TNKS2 / RFU, ZFP14 / Fold change vs veh, ZFP14 / RFU, ACTR2 / Fold change vs veh, ACTR2 / RFU, PPP3R1 / Fold change vs veh, PPP3R1 / RFU, PIK3R1 / Fold change vs veh, PIK3R1 / RFU, HNRNPA1 / Fold change vs veh, HNRNPA1 / RFU, RNF170 / Fold change vs veh, RNF170 / RFU, ZNF28 / Fold change vs veh, ZNF28 / RFU, RNGTT / Fold change vs veh, RNGTT / RFU, OGT / Fold change vs veh, OGT / RFU, BRD1 / Fold change vs veh, BRD1 / RFU, MARS / Fold change vs veh, MARS / RFU, ZNF655 / Fold change vs veh, ZNF655 / RFU, FAHD1 / Fold change vs veh, FAHD1 / RFU, BDP1 / Fold change vs veh, BDP1 / RFU, LRRCC1 / Fold change vs veh, LRRCC1 / RFU, ARID1A / Fold change vs veh, ARID1A / RFU, ZNF146 / Fold change vs veh, ZNF146 / RFU, ZNF330 / Fold change vs veh, ZNF330 / RFU, GPN3 / Fold change vs veh, GPN3 / RFU, C9orf123 / Fold change vs veh, C9orf123 / RFU, N4BP2L2 / Fold change vs veh, N4BP2L2 / RFU, ARFIP1 / Fold change vs veh, ARFIP1 / RFU, FAM179B / Fold change vs veh, FAM179B / RFU, BCL10 / Fold change vs veh, BCL10 / RFU, UHRF1BP1L / Fold change vs veh, UHRF1BP1L / RFU, BET1 / Fold change vs veh, BET1 / RFU, CNOT2 / Fold change vs veh, CNOT2 / RFU, ZNF268 / Fold change vs veh, ZNF268 / Fold change vs veh, ZNF507 / RFU, DGCR2 / Fold change vs veh, DGCR2 / RFU, WDSUB1 / Fold change vs veh, WDSUB1 / Fold change vs veh, HSP90B1 /// MIR3652 / RFU, ADSS / Fold change vs veh, ADSS / RFU, GK / Fold change vs veh, GK / RFU, ZNF148 / Fold change vs veh, ZNF148 / RFU, TAF9 / Fold change vs veh, TAF9 / RFU, SLC1A5 / Fold change vs veh, SLC1A5 / RFU, SLMO2 / Fold change vs veh, SLMO2 / RFU, ABCC4 / Fold change vs veh, ABCC4 / RFU, LOC101060439 /// RAP1B / Fold change vs veh, LOC101060439 /// RAP1B / RFU, RFX7 / Fold change vs veh, RFX7 / RFU, GTPBP10 / Fold change vs veh, GTPBP10 / RFU, CNEP1R1 / Fold change vs veh, CNEP1R1 / RFU, BIVM-ERCC5 /// ERCC5 / Fold change vs veh, BIVM-ERCC5 /// ERCC5 / RFU, ILF3 / Fold change vs veh, ILF3 / RFU 11762660_at / Fold change /veh 11762660_at / RFU VCAN (11757783_s_at) / Fold change /veh VCAN (11757783_s_at) / RFU DDX43 (11728927_at) / Fold change /veh DDX43 (11728927_at) / RFU KRT8 (11758188_x_at) / Fold change /veh KRT8 (11758188_x_at) / RFU NKD1 (11759106_at) / Fold change /veh NKD1 (11759106_at) / RFU SRD5A1 (11742802_a_at) / Fold change /veh SRD5A1 (11742802_a_at) / RFU TPSAB1 /// TPSB2 (11721975_s_at) / Fold change /veh TPSAB1 /// TPSB2 (11721975_s_at) / RFU GSTM3 (11746129_a_at) / Fold change /veh GSTM3 (11746129_a_at) / RFU IL23R (11737362_x_at) / Fold change /veh IL23R (11737362_x_at) / RFU TMEM51 (11727254_a_at) / Fold change /veh TMEM51 (11727254_a_at) / RFU PIWIL2 (11732686_x_at) / Fold change /veh PIWIL2 (11732686_x_at) / RFU ORM1 (11744905_x_at) / Fold change /veh ORM1 (11744905_x_at) / RFU CCDC152 (11743942_at) / Fold change /veh CCDC152 (11743942_at) / RFU ECM1 (11717891_a_at) / Fold change /veh ECM1 (11717891_a_at) / RFU IL23R (11748794_a_at) / Fold change /veh IL23R (11748794_a_at) / RFU TNFAIP8L3 (11732012_x_at) / Fold change /veh TNFAIP8L3 (11732012_x_at) / RFU MBOAT4 (11741988_at) / Fold change /veh MBOAT4 (11741988_at) / RFU 11764193_at / Fold change /veh 11764193_at / RFU TMEM53 (11763286_at) / Fold change /veh TMEM53 (11763286_at) / RFU MAGEB2 (11727129_at) / Fold change /veh MAGEB2 (11727129_at) / RFU TMEM200A (11744735_a_at) / Fold change /veh TMEM200A (11744735_a_at) / RFU CCDC152 (11751479_a_at) / Fold change /veh CCDC152 (11751479_a_at) / RFU FAM211A (11726209_a_at) / Fold change /veh FAM211A (11726209_a_at) / RFU RGS16 (11746705_a_at) / Fold change /veh RGS16 (11746705_a_at) / RFU VCAN (11755009_s_at) / Fold change /veh VCAN (11755009_s_at) / RFU RHOB (11743442_s_at) / Fold change /veh RHOB (11743442_s_at) / RFU RGS16 (11720943_a_at) / Fold change /veh RGS16 (11720943_a_at) / RFU RGS16 (11720944_at) / Fold change /veh RGS16 (11720944_at) / RFU, VPS4B / Fold change vs veh, VPS4B / RFU, CREB1 / Fold change vs veh, CREB1 / RFU, DNAJC13 / Fold change vs veh, DNAJC13 / RFU, GNAQ / Fold change vs veh, GNAQ / RFU, CDK5R1 / Fold change vs veh, CDK5R1 / RFU, ZRANB3 / Fold change vs veh, ZRANB3 / RFU, CUL4A / Fold change vs veh, CUL4A / RFU, CCNY / Fold change vs veh, CCNY / RFU, UFL1 / Fold change vs veh, UFL1 / RFU, COG3 / Fold change vs veh, COG3 / RFU, DIAPH2 / Fold change vs veh, DIAPH2 / RFU, SKA2 / Fold change vs veh, SKA2 / RFU, AFF3 / Fold change vs veh, AFF3 / RFU, LMF1 / Fold change vs veh, LMF1 / RFU, IPO11 / Fold change vs veh, IPO11 / RFU, DFFB / Fold change vs veh, DFFB / RFU, FOXP1 / Fold change vs veh, FOXP1 / RFU, CARD8 / Fold change vs veh, CARD8 / RFU, STRN3 / Fold change vs veh, STRN3 / RFU, ADK / Fold change vs veh, ADK / RFU, RASSF2 / Fold change vs veh, RASSF2 / RFU, WIPF1 / Fold change vs veh, WIPF1 / RFU, LARP1B / Fold change vs veh, LARP1B / RFU, RASA1 / Fold change vs veh, RASA1 / RFU, RB1 / Fold change vs veh, RB1 / RFU, PPFIA1 / Fold change vs veh, PPFIA1 / RFU, MAT2A / Fold change vs veh, MAT2A / RFU, CCT5 / Fold change vs veh, CCT5 / RFU, WDR92 / Fold change vs veh, WDR92 / RFU, CUX1 / Fold change vs veh, CUX1 / RFU, TTC7A / Fold change vs veh, TTC7A / RFU, TMEM135 / Fold change vs veh, TMEM135 / RFU, DEPTOR / Fold change vs veh, DEPTOR / RFU, CPM / Fold change vs veh, CPM / RFU, DNAJB6 / Fold change vs veh, DNAJB6 / RFU, CACNA2D3 / Fold change vs veh, CACNA2D3 / RFU, DTX4 / Fold change vs veh, DTX4 / RFU, TFCP2 / Fold change vs veh, TFCP2 / RFU, GMCL1 /// GMCL1P1 / Fold change vs veh, GMCL1 /// GMCL1P1 / RFU, AEBP2 / Fold change vs veh, AEBP2 / RFU, SNHG1 /// SNORD22 /// SNORD25 /// SNORD26 /// SNORD27 /// SNORD28 /// SNORD29 /// SNORD31 / Fold change vs veh, SNHG1 /// SNORD22 /// SNORD25 /// SNORD26 /// SNORD27 /// SNORD28 /// SNORD29 /// SNORD31 / Fold change (Aza/veh), C12orf56 (ProbeSet 11735607_a_at) / Fold change (ACY-1035/veh), C12orf56 (ProbeSet 11735607_a_at) / Fold change (Aza/veh), FGFR1OP (ProbeSet 11751329_s_at) / Fold change (ACY-1035/veh), FGFR1OP (ProbeSet 11751329_s_at) / Fold change (Aza/veh), VPS36 (ProbeSet 11739960_a_at) / Fold change (ACY-1035/veh), VPS36 (ProbeSet 11739960_a_at) / RFU SYPL1 (11715823_x_at) / Fold change /veh SYPL1 (11715823_x_at) / RFU IGFBP7 (11715501_s_at) / Fold change /veh IGFBP7 (11715501_s_at) / RFU REEP3 (11722064_at) / Fold change /veh REEP3 (11722064_at) / RFU IGLL1 (11728026_x_at) / Fold change /veh IGLL1 (11728026_x_at): dose or concentration left out as unconfirmed. The following applies: MV-4-11 cells, 48 hours.

`Nc1ccc(-c2cccs2)cc1NC(=O)c1ccc2c(c1)cc(C1CC1)n2CCN1CCOCC1` [ACY-1035]: the “Fold change /veh CAMK2N1 (11719241_x_at)” value is reported as 0.84.
